According to patent US20110236393A1, “MONOCLONAL ANTIBODY PRODUCTION IN B CELLS AND USES THEROF” (Duke University, priority 2008, published 2011):

Key:
[1] = tested on: PBMC infected with EBV (B95-8); assay: EBV transformation efficiency (EBV-induced LCL outgrowth following PBMC infection); format: cell-based, human; settings: for increase of EBV-mediated transformation efficiency: relative to DMSO (set to 1), LCL positive wells at six weeks post infection
Experimental: FIGS. 3A and 3B are graphical plots showing the inhibition of ATM and Chk2 kinases increased EBV transformation efficiency. […] The percentages of wells positive for LCLs at six weeks post infection were plotted relative to the amount of B95-8 virus used per well. The efficiency of transformation was determined by the amount of virus necessary to induce 63% positive wells as indicated by a Poisson's distribution. This value was set to 1 for the DMSO treated infections. The difference between DMSO and 5 μM ATMi treated infections was ˜30-fold increased efficiency in the presence of 5 μM ATMi. In FIG. 3B similar experiments were performed using DMSO (diamond), 2 μM Chk2i II (square), or 5 μM Chk2i II (triangle).
Methods of infecting B cells with EBV are known to those of skill in the art. In some embodiments B cells can be infected with EBV as disclosed in the Examples below. In some embodiments primary human peripheral blood mononuclear cells (PBMCs) can be infected with the EBV strain B95-8 with dilutions starting from a multiplicity of infection such that all B cells express the EBV latent gene expression program (approximately 100 particles/cell) through a dilution where no LCLs grow out. Culturing of the EBV-infected cells in RPMI 1640, 10% FCS, antibiotics, and in the presence of cyclosporine to suppress T cell activity, allows for the outgrowth of LCLs at approximately 1-5% efficiency (transformant/infected cell) within 5 weeks. Scoring of LCL outgrowth can be performed using techniques and analytical equipment as is know to those of skill in the art. By way of example and not limitation, scoring of LCL outgrowth can be performed using a Cellomics Vti Array Scan instrument (ThermoFisher Scientific, Waltham, Mass., United States of America) following Calcein-AM live cell fluorescent staining, which allows for an unbiased readout of LCL outgrowth. […]
Likewise, the downstream ATM target, Chk2, was evaluated for its ability to inhibition EBV-mediated proliferation of B cells. […]

[2] = tested on: CD19+ B cells of CFSE-stained PBMC; assay: CFSE/CD19 B cell proliferation after EBV infection of PBMC; format: cell-based, human; settings: for B cell proliferation in the absence of EBV: 5 μM, no EBV, six days post treatment; for B-cell proliferation (CD19+/CFSElo cells of total PBMCs): EBV infection in presence of 1, 2, 5, 10 μM inhibitor, 14 days post infection
From the text: FIGS. 4A, 4B and 4C show inhibition of ATM or Chk2 increased the proliferation of B cells following EBV infection. FIG. 4A is a dot plot of EBV-mediated proliferation following infection of CFSE-stained PBMC, detected by FACS using CD19-PE staining of B cells and CFSE to monitor cell divisions, at 2 and 6 days post infection. At day 2 post infection there was little proliferation, while by day 6 there was clear B cell proliferation induced by the virus. FIG. 4B is a histogram illustrating the effect of CFSE-stained PBMC infected with EBV in the presence of increasing amounts of ATMi or Chk2i (0.1% DMSO, 1 μM, 2 μM, 5 μM, and 10 μM). The percentage of CD19+/CFSElo cells of total PBMCs at 14 days post infection are plotted. The data shown are the average values from two different normal donors with error bars reflecting the standard error. […] FIG. 4C includes dot plots of the proliferation of CFSE-stained PBMC treated with DMSO, 5 μM ATMi, 5 μM Chk21, or infected with EBV. Six days post treatment/infection cells were stained with CD19-PE antibody and proliferation of B cells was assessed. […] The difference in relative B cell proliferation at day six between FIGS. 4A and 4C was due to normal donor variation.
To further characterize the ATM- and Chk2-dependent block to EBV-mediated transformation, B cell proliferation early after infection was analyzed. PBMC were infected and B cell proliferation was followed over time using the fluorescent dye CFSE and CD19 staining of B cells. CFSE staining assays proliferation as its fluorescence is halved in daughter cells. PBMC were stained with the cell permeable dye carboxyfluorescein succinimidyl ester (CFSE). This dye enters the cytoplasm and is cleaved to fluoresce immediately by intracellular esterases. The dye is maintained in cells at a concentration that divides by half with each cell division. Thus, each two-fold reduction of CFSE fluorescence readout by flow cytometry correlates with one cycle of proliferation. CFSE-labeled PBMC were infected with EBV and B cell proliferation was monitored by CD19-PE or APC labeling cells at different days after infection. Flow cytometry was used to analyze the CD19 and CFSE levels in gated live cells (by forward versus side scatter). The percentage of CD19+ cells that have proliferated (CFSElo) relative to total PBMC cell numbers were plotted to indicate a relative proliferation index in panel B of FIG. 4. Using the CD19 marker and CFSE the proliferation of B cells during the early stages of transformation were specifically followed (FIG. 4A).
The above experiments were followed with washout and time of addition experiments using either ATM or Chk2 inhibitor. EBV-infected B cells were determined to be sensitive to the inhibitors between 4 and 8 days after infection. […]

[3] = tested on: IgG+ memory B cells infected with EBV B95-8; assay: Outgrowth of EBV-infected IgG+ memory B cells (positive wells at 4 weeks); format: cell-based, human; settings: EBV B95-8 MOI 5, CpG 2.5 μg/mL, Chk2i 5 μM, 1,000 and 300 cells per well
From the text: This Example pertains to the evaluation of whether inhibition of the DDR, in particular Chk2, is capable of increasing the efficiency of EBV transformation of memory B cells and whether the frequency of antibody secreting cells will increase. As a positive control, CpG 2006 TLR9 agonist was included either alone or together with Chk21. The CpG employed was CpG 2006 (Hartmann and Krieg, The Journal of Immunology, 2000, 164: 944-952.). The Chk2i employed was Chk2i II (Arienti et al., 2005 J. Med Chem 48:1873-1875).
Normal donor peripheral blood mononuclear cells (PBMC) were sorted to >95% pure IgG+ memory B cells using a scheme of positive selection for CD19 and CD27 and negative selection of IgM, IgD, and IgA. Cells were then infected with EBV B95-8 strain at an MOI of 5 and either DMSO, CpG (2.5 μg/mL), Chk2i (5 μM), or CpG +Chk21. Cells were seeded in 96-well plates with 50,000 lethally irradiated J774A.1 cells at different amounts. […] Wells were analyzed at 4 weeks for outgrowth and positive wells are plotted as a percentage for each condition. […] These were measured by IgG-specific ELISA.

[4] = tested on: CD19+ B cells; assay: B cell number after mitogen stimulation (flow cytometry count); format: cell-based, human; settings: 5 μM Chk2i II vs DMSO, different time points
Experimental: FIG. 11 is bar graph showing that Chk2 […] the total B cell number following CpG treatment or EBV infection. PBMC were stimulated with CpG 2006 (2.5 μg/mL) or infected with EBV (B95-8, MOI 5). CD19+ B cells were assayed 7 days after treatment of infection using flow cytometry. The total number of viable CD19+ B cells is plotted.
FIG. 12 is a histogram showing that Chk2 inhibition increased B cell number following CpG or CpG system stimulation. Cells were assayed at different time points after stimulation. Circles are CpG treated samples and squares are CpG system treated samples. Open symbols are DMSO-treated and closed symbols are Chk21-treated.
Inhibition of the DDR increased B Cell proliferation in response to mitogens This Example pertains to inhibition of the DDR signaling pathway as a means to increase B cell mitogen induced proliferation. In FIG. 11 inhibition of Chk2 increased the number of B cells proliferating following either CpG DNA treatment or EBV infection as B cell mitogens. […] Total B cell number refers to CD19+ cells gated for viability using forward and side scatter and normalized to polystyrene beads.
The proliferation of cells in response to a combination of mitogenic signals was also assayed in the presence of a DNA damage response inhibitor. […] Cells were counted at different time points using the assay described in Example 10. […]

[5] = tested on: memory B cells from chronic HIV-1-infected patients; assay: Frequency of IgG positive cell clones of EBV transformed memory B cells; format: cell-based, human; settings: EBV transformation in presence vs absence of Chk2i II
From the text: FIG. 13 is a scatter plot of the frequency of IgG positive cell clones of EBV transformed memory B cells from chronic HIV-1-infected patients in the presence or absence of Chk2i II. An increase in the frequency of IgG positive cell clones in the presence of Chk2i II was observed.
Identification of a HIV-Specific Neutralizing Antibody Following EBV Transformation of Memory B Cells from a Patient Chronically Infected with HIV in the Presence of an Inhibitor of the DNA Damage Response Using the methods of the presently disclosed subject matter, memory B cells from a chronic HIV-1-infected patient were EBV transformed. An increase in the frequency of IgG positive cell clones in the presence of Chk2i II was observed (FIG. 13). It was then determined whether these antibodies would specifically recognize HIV glycoproteins and whether they had biological (e.g. neutralizing) activity. Several potentially HIV-1 neutralizing antibodies were identified during initial screening of the cell culture supernatants. One of these was cloned into a hetero-hybridoma cell line and the IgG mAb was purified (SMB2-2). The mAb bound to HIV-1 gp120 and gp140 proteins (FIG. 14) and captured HIV-1 virions (FIG. 15) and neutralized infection of HIV-1 strains SF162 and MN in vitro (FIG. 16). In preliminary experiments, SMB2-2 neutralized infection of HIV-1 strains SF162 and MN in vitro with an IC50˜10 μg/mL. […]

[6] = tested on: Chk1 and over 30 other serine/threonine kinases; settings: Arienti et al., 2005; cited from earlier work

For `O=c1cc(-c2cccc3c2Sc2ccccc2S3)oc(N2CCOCC2)c1` [ATMi], the “increase of EBV-mediated transformation efficiency” value ([1]; 2 μM inhibitor) was “approximately 3 fold”, the “increase of EBV-mediated transformation efficiency” value ([1]; 5 μM inhibitor) was about 30 fold and the “B cell proliferation in the absence of EBV” value [2] was “No effect”. The “B-cell proliferation (CD19+/CFSElo cells of total PBMCs)” value [2] was “dose dependent increase”.

In the case of `CC(=O)c1ccc2c(c1)C=C(c1ccc(Oc3ccc(Cl)cc3)cc1)C2` [Chk2i II], the “EBV transformation efficiency (in words)” value ([1]; 2 μM and 5 μM vs DMSO) is reported as “dramatic and dose-dependent increase”, the “B cell proliferation in the absence of EBV” value [2] is reported as “No effect” and the “B-cell proliferation (CD19+/CFSElo cells of total PBMCs)” value [2] is reported as “dose dependent increase”. For the same molecule, the “outgrowth of memory B cells (positive wells)” value [3] was “increased the ability of B cells to grow out”, the “B cell number following CpG stimulation” value [4] was “increased” and the “B cell number following CpG system stimulation” value ([4]; CpG DNA, anti-Ig, IL-2, IL-10) was “increased”. The “frequency of IgG positive cell clones” value [5] was “increase” and the “specificity over Chk1 and over 30 other serine/threonine kinases” value [6] was “exquisite specificity”.
